The values that follow come from patent US20250215012A1, “IKZF2 DEGRADERS AND USES THEREOF” (REGENTS OF THE UNIVERSITY OF MICHIGAN, priority 2022, published 2025).

Bounds are passed on as bounds.

The target in test [1] is IKZF1 (Homo sapiens (Human), UniProt Q13422+Q96SW2). Kind of test: IKZF1 HiBit Assay (HEK293T Flp-in-HiBiT-IKZF1 stable cell line). Type of test: cell-based. The conditions noted are these: HEK293T Flp-in-HiBiT-IKZF1 cells, 6 hrs; for DC50: read-out: IKZF1 HiBit degradation DC50; for Dmax: HEK-293T, read-out: IKZF1 HiBit degradation Dmax. On the procedure:
The HiBiT protein tagging system was applied to modified Cells: modified HEK293T Flp-in-HiBiT-IKZF1 stable cell line (polyclone) via a CRISPR/Cas9—mediated insertion of the HiBiT peptide tag (Promega™) to the N-terminus of the IKZF2 gene locus (Neon™ transfection system).
Test compound from 10 mM and reference compound (CC-92480 from 50 mM and I-57 from 10 mM) are diluted at 3 folds for 11 doses. 25 nL of diluted compound is transferred to assay plates (Corning3571) using ECHO550, the final DMSO concentration @0.1%. The cells are seeded in 3000/[…]/well to compound plates. The plates are incubated for 6 hrs in TC incubator. The amount of Nano-Glo® HiBiT lytic reagent needed to perform the desired experiments is calculated. The Nano-Glo® HiBiT lytic reagent is brought to room temperature. The LgBiT protein is diluted to 1:100 and the Nano-Glo® HiBiT lytic substrate is brought to 1:50 into an appropriate volume of room temperature Nano-Glo® HiBiT lytic buffer. […] of the detection reagent (or without LgBiT) is dispensed to corresponding well according to the layout. The plate is shaked for 10 mins at room temperature. After briefly centrifuging, the plate is read on Envision. At the indicated timepoints, the Nano-Glo® HiBiT lytic detection system (Promega™) was utilized for detecting bioluminescence of the HiBiT tag in treated cells: abundance of the tag is proportionate to the level of luminescence. Following normalization to DMSO, dose-response curves were plotted (GraphPad Prism) to determine the concentration points at which 50% of HiBiT-Ikaros degradation was achieved by each compound. The extent of degradation (range of luminescence) from the highest to lowest concentration points was calculated to determine the Dm.
(In general: HiBiT is a short tag that completes a luciferase, so light tracks the accessible tagged protein.)

In test [2] the target is IKZF2 (Homo sapiens (Human), UniProt Q96SW2+Q9UKS7). As to the kind of experiment: IKZF2 HiBit Assay (HEK293T Flp-in-HiBiT cells). The test is classed as cell-based. The note with it: HEK293T Flp-in-HiBiT cells, 6 hrs; for DC50: read-out: IKZF2 HiBit degradation DC50; for Dmax: HEK-293T, read-out: IKZF2 HiBit degradation Dmax. On the procedure: The HiBiT protein tagging system was applied to modified HEK293T Flp-in-HiBiT cells (polyclone) via a CRISPR/Cas9—mediated insertion of the HiBiT peptide tag (Promega™) to the N-terminus of the IKZF2 gene locus (Neon™ transfection system). Test and reference compounds are diluted from 1 mM at 3 folds for 11 doses. 25 nL of diluted compound is transferred to assay plates (Corning3570) using ECHO550, the final DMSO concentration @0.1%. The cells are seeded in 3000/[…]/well to compound plates. It is then incubated for 6 hrs in TC incubator. The amount of Nano-Glo® HiBiT lytic reagent needed to perform the desired experiments is calculated. The Nano-Glo® HiBiT lytic reagent is brought to room temperature. The LgBiT protein is diluted to 1:100 and the Nano-Glo® HiBiT lytic substrate is diluted to 1:50 into an appropriate volume of room temperature Nano-Glo® HiBiT lytic buffer. […] of the detection reagent (or without LgBiT) is dispensed to corresponding well according to the layout. The plate is then shaked for 10 mins at room temperature. After briefly centrifuge, the plate is read on Envision. At the indicated timepoints, the Nano-Glo® HiBiT lytic detection system (Promega™) was utilized for detecting bioluminescence of the HiBiT tag in treated cells: abundance of the tag is proportionate to the level of luminescence. Following normalization to DMSO, dose-response curves were plotted (GraphPad Prism) to determine the concentration points at which 50% of HiBiT-Helios degradation was achieved by each compound. The extent of degradation (range of luminescence) from the highest to lowest concentration points was calculated to determine the Dmax.
Sequence of IKZF2 (Q9UKS7 whole entry): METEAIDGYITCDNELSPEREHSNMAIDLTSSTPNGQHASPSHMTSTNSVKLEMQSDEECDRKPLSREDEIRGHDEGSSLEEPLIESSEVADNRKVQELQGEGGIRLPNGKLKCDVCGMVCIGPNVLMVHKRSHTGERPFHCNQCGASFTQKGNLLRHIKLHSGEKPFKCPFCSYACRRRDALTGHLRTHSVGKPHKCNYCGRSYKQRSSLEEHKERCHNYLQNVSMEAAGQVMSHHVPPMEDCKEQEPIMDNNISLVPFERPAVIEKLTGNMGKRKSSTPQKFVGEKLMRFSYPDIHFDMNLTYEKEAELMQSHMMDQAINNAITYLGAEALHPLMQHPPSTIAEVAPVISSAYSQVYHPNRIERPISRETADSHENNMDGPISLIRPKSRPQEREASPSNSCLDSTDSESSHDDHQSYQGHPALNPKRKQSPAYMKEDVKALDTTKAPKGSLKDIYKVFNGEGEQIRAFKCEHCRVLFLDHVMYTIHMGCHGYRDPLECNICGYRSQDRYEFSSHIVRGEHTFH
Sequence of IKZF2 (Q96SW2 whole entry): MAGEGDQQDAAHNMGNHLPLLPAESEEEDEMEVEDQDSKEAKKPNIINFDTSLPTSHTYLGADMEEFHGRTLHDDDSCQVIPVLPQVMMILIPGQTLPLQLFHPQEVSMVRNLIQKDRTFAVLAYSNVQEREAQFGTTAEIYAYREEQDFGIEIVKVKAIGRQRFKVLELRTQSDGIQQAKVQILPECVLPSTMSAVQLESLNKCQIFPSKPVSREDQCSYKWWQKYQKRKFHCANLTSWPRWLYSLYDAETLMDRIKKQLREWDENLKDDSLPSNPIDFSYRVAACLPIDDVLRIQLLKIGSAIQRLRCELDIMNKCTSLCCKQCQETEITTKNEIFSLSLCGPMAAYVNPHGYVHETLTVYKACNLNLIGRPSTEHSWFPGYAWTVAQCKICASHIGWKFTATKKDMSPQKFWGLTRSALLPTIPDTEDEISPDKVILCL
Sequence of IKZF2 (Q16531 whole entry partner): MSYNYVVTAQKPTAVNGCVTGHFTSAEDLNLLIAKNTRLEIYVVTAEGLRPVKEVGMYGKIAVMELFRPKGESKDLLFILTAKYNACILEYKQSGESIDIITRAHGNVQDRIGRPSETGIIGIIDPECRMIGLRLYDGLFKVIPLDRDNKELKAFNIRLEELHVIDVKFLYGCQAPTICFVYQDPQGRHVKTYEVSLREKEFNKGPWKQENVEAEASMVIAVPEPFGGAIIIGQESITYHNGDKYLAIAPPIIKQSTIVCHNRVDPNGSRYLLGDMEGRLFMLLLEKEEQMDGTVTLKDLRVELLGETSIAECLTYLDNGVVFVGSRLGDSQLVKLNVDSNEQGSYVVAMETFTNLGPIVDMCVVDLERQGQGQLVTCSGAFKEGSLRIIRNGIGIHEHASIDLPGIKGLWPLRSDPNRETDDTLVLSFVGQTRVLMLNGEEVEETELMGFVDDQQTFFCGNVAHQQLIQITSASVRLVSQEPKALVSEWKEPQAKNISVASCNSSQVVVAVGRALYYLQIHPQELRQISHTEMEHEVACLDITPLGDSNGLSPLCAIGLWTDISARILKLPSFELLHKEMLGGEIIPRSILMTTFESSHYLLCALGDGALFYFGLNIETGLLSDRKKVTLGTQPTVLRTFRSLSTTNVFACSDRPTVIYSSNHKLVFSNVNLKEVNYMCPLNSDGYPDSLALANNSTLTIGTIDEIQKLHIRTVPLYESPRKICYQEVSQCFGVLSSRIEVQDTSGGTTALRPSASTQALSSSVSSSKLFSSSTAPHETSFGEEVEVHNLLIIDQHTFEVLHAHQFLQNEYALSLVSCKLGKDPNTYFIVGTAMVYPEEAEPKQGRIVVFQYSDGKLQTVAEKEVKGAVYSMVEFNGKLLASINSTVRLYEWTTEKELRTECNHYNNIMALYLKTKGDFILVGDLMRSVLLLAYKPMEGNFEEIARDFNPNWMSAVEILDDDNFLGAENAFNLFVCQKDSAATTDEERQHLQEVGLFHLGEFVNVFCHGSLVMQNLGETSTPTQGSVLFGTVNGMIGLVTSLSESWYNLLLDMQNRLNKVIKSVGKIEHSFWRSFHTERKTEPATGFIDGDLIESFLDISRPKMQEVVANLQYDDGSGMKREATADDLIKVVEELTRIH

Test [3] has as its target His tagged CRBN+DDB−DLS7+CXU4 (Homo sapiens (Human), UniProt Q96SW2). Kind of test: IC50 Measurements for Binding to CRBN/DDBI (HTRF). The conditions noted are these: Cy5-labeled Thalidomide probe, one hour incubation. On the technique in general: In TR-FRET formats the signal depends on donor and acceptor labels being close together.

Sequence of IKZF1 (Q13422 whole entry): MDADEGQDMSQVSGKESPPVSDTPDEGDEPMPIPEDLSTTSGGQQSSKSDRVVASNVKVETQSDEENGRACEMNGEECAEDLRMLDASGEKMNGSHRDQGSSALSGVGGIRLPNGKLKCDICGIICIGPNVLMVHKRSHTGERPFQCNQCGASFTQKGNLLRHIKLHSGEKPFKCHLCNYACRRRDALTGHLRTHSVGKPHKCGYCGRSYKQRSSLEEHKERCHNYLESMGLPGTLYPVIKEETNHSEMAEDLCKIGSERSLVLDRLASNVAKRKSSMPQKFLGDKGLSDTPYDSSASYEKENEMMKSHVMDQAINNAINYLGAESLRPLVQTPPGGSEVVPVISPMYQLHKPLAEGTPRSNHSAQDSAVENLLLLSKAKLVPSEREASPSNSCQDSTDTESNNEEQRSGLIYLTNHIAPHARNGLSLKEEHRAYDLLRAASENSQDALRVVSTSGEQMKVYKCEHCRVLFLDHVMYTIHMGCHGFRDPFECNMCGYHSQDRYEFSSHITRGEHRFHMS
Sequence of IKZF1 (Q96SW2 whole entry): as the sequence (Q96SW2 whole entry) above
Sequence of IKZF1 (Q16531 whole entry partner): as the sequence (Q16531 whole entry partner) above
Sequence of His tagged CRBN+DDB−DLS7+CXU4 (Q96SW2 whole entry): as the sequence (Q96SW2 whole entry) above
Sequence of His tagged CRBN+DDB−DLS7+CXU4 (Q16531 whole entry partner): as the sequence (Q16531 whole entry partner) above

The DC50 is the concentration at which degradation of the target reaches its halfway point. One may read the IC50 as the concentration needed to halve the response being measured. Lower therefore signals greater potency in that assay. As for “(3S)-3-(1′-((1H-indazol-6-yl)methyl)-3′,3′-difluoro-3-oxo-1,3,7,8-tetrahydro-2H-spiro[cyclopenta[e]isoindole-6,4′-piperidin]-2-yl)piperidine-2,6-dione [Compound B33]”, in test [1], the “IKZF1 HiBit degradation Dmax” value is given as “C (C: <20%)” and the DC50 is over 1 µM. Also, in test [2], the “IKZF2 HiBit degradation Dmax” value was “B (B: 60-80%)” and the DC50 fell in the range of 0.001 to 0.01 µM. In test [3], the IC50 is 0.1 to 0.5 µM.
As usually defined, the Dmax is the greatest extent of degradation seen. `O=C1CC[C@H](N2Cc3c(ccc4c3OCC43CCN(Cc4cn(-c5ccc(Cl)cc5)nc4Cl)CC3)C2=O)C(=O)N1` [Compound B4, (S)-3-(1′-((3-chloro-1-(4-chlorophenyl)-1H-pyrazol-4-yl)methyl)-6-oxo-6,8-dihydro-2H,7H-spiro[furo[2,3-e]isoindole-3,4′-piperidin]-7-yl)piperidine-2,6-dione]: in test [1], the DC50 was over 1 µM and the Dmax was under 20%. Besides, in test [2], the DC50 is 0.001 to 0.01 µM and the Dmax was in the range of 60 to 80%. Moreover, the IC50 in test [3] fell in the range of 0.5 to 1 µM.
With `O=C1CC[C@@H](N2Cc3c(ccc4c3OCC43CCN(Cc4cccc(-c5cnn(C6COC6)c5)c4)CC3)C2=O)C(=O)N1` [Compound B15, (R)-3-(1′-(3-(1-(oxetan-3-yl)-1H-pyrazol-4-yl)benzyl)-6-oxo-6,8-dihydro-2H,7H-spiro[furo[2,3-e]isoindole-3,4′-piperidin]-7-yl)piperidine-2,6-dione], in test [1], the DC50 was over 1 µM and the Dmax was under 20%. Besides, in test [2], the DC50 was in the range of 0.001 to 0.01 µM and the Dmax is over 80%.
In the same order, the values of `O=C1CCC(N2Cc3c(ccc4c3OCC43CCN(Cc4ccccc4)CC3(F)F)C2=O)C(=O)N1` (stereo not drawn) [Compound B25, 3-(1′-benzyl-3′,3′-difluoro-6-oxo-6,8-dihydro-2H,7H-spiro[furo[2,3-e]isoindole-3,4′-piperidin]-7-yl)piperidine-2,6-dione] are 0.001 to 0.01 µM, 20 to 40%, 0.001 to 0.01 µM and 60 to 80%.
In the case of `O=C1CC[C@H](N2Cc3c(ccc4c3OC[C@@]43CCN(Cc4cccc(-c5cnn(C6COC6)c5)c4)CC3(F)F)C2=O)C(=O)N1` [Compound B54, (S)-3-((R)-3′,3′-difluoro-1′-(3-(1-(oxetan-3-yl)-1H-pyrazol-4-yl)benzyl)-6-oxo-6,8-dihydro-2H,7H-spiro[furo[2,3-e]isoindole-3,4′-piperidin]-7-yl)piperidine-2,6-dione], in test [1], the DC50 was over 1 µM and the Dmax lay within 20 to 40%. Besides, in test [2], the DC50 is 0.001 to 0.01 µM and the Dmax was in the range of 60 to 80%.
In the same order, the values of `O=C1CCC(N2Cc3c(ccc4c3OCC43CCN(Cc4cccc5cn[nH]c45)CC3O)C2=O)C(=O)N1` (stereo not drawn) [Compound B24, 3-(1′-((1H-indazol-7-yl)methyl)-3′-hydroxy-6-oxo-6,8-dihydro-2H,7H-spiro[furo[2,3-e]isoindole-3,4′-piperidin]-7-yl)piperidine-2,6-dione] are over 1 µM, under 20%, 0.01 to 0.1 µM and 60 to 80%.
In the same order, the values of `O=C1CC[C@H](N2Cc3c(ccc4c3OCC43CCN(Cc4cnn(CC5CCS(=O)(=O)CC5)c4)CC3(F)F)C2=O)C(=O)N1` (stereo partly drawn) [Compound B47, (3S)-3-(1′-((1-((1,1-dioxidotetrahydro-2H-thiopyran-4-yl)methyl)-1H-pyrazol-4-yl)methyl)-3′,3′-difluoro-6-oxo-6,8-dihydro-2H,7H-spiro[furo[2,3-e]isoindole-3,4′-piperidin]-7-yl)piperidine-2,6-dione] are over 1 µM, under 20%, 0.01 to 0.1 µM and 60 to 80%.
